Experimental data taken from patent US7405051B2, “Method of screening antiplatelet agents” (Astellas Pharma Inc., priority 2000, dated 2008).
pKd: −log10 of the molar value.

Assays:
[1] = target: HORK3 protein (human ADP receptor P2TAC) (Homo sapiens, UniProt Q9H244); assay: [3H]-2MeSADP binding assay on membrane fraction of C6-15 cell expressing HORK3 protein; details: Scatchard analysis
From the text: (§1) The C6-15 cells expressing the HORK3 protein prepared in Example 5 were taken and washed, and then suspended in 20 mmol/L Tris-HCl (pH7.4) containing 5 mmol/L EDTA and a protease inhibitor cocktail set (Complete™; manufactured by Boeringer Mannheim). The whole was homogenized by using a POLYTRON, and ultracentrifuged. The pellet was suspended in 50 mmol/L Tris-HCl (pH7.4) containing 1 mmol/L EDTA, 100 mmol/L NaCl, 0.1% BSA, and Complete™ to obtain a membrane fraction.
(§2) After [^3H]-2MeSADP (manufactured by Moravek Biochemical) was added to 20 μg of the membrane fraction as a final concentration of 0.25 to 50 nmol/L, and was incubated in 250 μL of 50 mmol/L Tris-HCl (pH7.4) containing 1 mmol/L EDTA, 100 mmol/L NaCl, 0.1% BSA, and Complete™ at room temperature for 1 hour, the whole was collected on a glass filter by using a cell harvester. A microscintillator was added to the glass filter, and then a total amount of binding to the membrane fraction was measured by using a liquid scintillation counter. Further, an amount of non-specific binding to the membrane fraction was measured by adding 2MeSADP (a final concentration=50 μmol/L) in the above assay.
A microscintillator was added to the glass filter, and then radioactivity was measured by using a liquid scintillation counter. Further, radioactivity was measured by not adding the compound and by adding 2MeSADP (a final concentration=10 μmol/L) in the above assay, as a total amount of binding and an amount of non-specific binding, respectively.

[2] = system: membrane fraction of the host cell C6-15 not expressing the HORK3 protein; assay: [3H]-2MeSADP binding to membrane fraction of host cell C6-15 not expressing HORK3 protein; set-up: species or system rat
From the text: as §1
as §2, with “assay. […] In contrast, such a specific binding was not observed in the membrane fraction of the host cell C6-15 not expressing the HORK3 protein.” for “assay.”

HORK3 protein (human ADP receptor P2TAC), sequence (Q9H244 whole entry): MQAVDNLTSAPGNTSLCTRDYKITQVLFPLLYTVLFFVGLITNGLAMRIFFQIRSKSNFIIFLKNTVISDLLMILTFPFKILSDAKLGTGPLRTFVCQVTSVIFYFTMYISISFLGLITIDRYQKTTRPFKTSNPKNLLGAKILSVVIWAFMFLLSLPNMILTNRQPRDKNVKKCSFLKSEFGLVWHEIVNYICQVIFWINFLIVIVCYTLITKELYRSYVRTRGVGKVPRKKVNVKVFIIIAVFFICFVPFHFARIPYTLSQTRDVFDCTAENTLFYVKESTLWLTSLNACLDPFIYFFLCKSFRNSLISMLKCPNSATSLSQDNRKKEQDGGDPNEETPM

pKd ([1]; 0.25 to 50 nmol/L, room temperature 1 hour, read-out: dissociation constant Kd of binding to the membrane fraction): 9.57
maximum binding Bmax ([1]; membrane fraction of C6-15 cell expressing HORK3): 3.7 pmol/mg
Compound: CSc1nc(N)c2ncn([C@@H]3O[C@H](COP(=O)(O)OP(=O)(O)O)[C@@H](O)[C@H]3O)c2n1 [[^3H]-2MeSADP, [^3H] 2-methylthio-ADP]
specific binding to the membrane fraction [2]: not observed
